The source made the active and inactive calls. How the calls were made is not given here.
Tested on: CCRIS mutagenicity, Ames/micronucleus/aberration tests
Test: CCRIS mutagenicity studies
Details: Test System: AMES SALMONELLA TYPHIMURIUM, Strain/Indicator: TA100, LIVER, S-9, 3-METHYLCHOLANTHRENE, Method: STANDARD PLATE

For `O[C@H]1C=Cc2c(cc3c4c(c5ccccc5cc24)-c2ccccc2-3)[C@@H]1O`, the mutagenic call (Metabolic Activation: MOUSE) was “active; positive” and the mutagenic call (Metabolic Activation: RAT) was “active; positive”.
